Activity calls are given as the source filed them. The calls are words filed in the database; no cut-off is given here.
Molecular target: Beta-lactamase TEM (Escherichia coli) (UniProt P62593)
Experiment: Inhibitory activity towards beta-lactamase enzyme at 50 mM concentration or higher; Weak inhibitor

Beta-lactamase TEM (Escherichia coli), sequence (P62593 whole entry): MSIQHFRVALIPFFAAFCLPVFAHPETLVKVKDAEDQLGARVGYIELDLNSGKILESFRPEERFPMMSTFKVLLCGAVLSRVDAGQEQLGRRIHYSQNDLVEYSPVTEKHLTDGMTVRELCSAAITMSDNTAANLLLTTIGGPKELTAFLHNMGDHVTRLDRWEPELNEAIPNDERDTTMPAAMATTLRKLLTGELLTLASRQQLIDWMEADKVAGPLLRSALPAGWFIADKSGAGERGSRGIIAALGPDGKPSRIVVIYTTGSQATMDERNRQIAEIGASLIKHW

- Activity: inactive
Structure (SMILES): CC(=O)[C@@H]1[C@H](NC(=O)c2ccccc2)C(=O)N1C1(C(=O)O)CC1

Source: ChEMBL document CHEMBL1127145, “Syntheses of novel 1-aminocyclopropane-1-carboxylic acid (ACC)-containing -lactams” (Bioorg Med Chem Lett, 1993)
